Each compound was assayed against HPK1 (Homo sapiens (Human), UniProt Q92918) (assay: HPK1 Kinase Binding Assay). Conditions: LanthaScreen tracer 222 binding, active HPK1, one hour incubation at 25° C.
Protocol: A stock solution of 1 mM test compound was prepared in DMSO. The compound plate was prepared by 3-fold and 11-point serial dilutions. 0.1 μL of the compound in DMSO was transferred from the compound plate to the white 384 well polystyrene plates. The assay buffer contained 50 mM HEPES, pH 7.5, 0.01% Tween-20, 5 mM MgCl2, 0.01% BSA, and 5 mM DTT. 5 μl of 4 nM active HPK1 (SignalChem M23-11G) prepared in the buffer was added to the plate. The enzyme concentration given was based on the given stock concentration reported by the vender. 5 μl of 18 nM tracer 222 (ThermoFisher PV6121) and 4 nM LanthaScreen Eu-Anti GST antibody (ThermoFisher PV5595) were added. After one hour incubation at 25° C., the plates were read on a PHERAstar FS plate reader (BMG Labtech). Ki values were determined.

HPK1, sequence (Q92918 1-346): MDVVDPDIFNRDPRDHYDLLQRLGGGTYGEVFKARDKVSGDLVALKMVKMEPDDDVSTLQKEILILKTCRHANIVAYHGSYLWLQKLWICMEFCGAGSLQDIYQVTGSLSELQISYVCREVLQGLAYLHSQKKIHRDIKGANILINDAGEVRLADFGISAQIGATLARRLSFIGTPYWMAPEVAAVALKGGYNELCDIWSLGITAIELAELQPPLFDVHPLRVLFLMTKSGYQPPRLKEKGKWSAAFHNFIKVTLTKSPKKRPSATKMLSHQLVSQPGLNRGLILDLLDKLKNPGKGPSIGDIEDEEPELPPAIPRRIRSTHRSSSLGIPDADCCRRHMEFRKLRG

Ki, ≤ 100 nM:
Cc1ccncc1-c1cc2c(NC(=O)c3ccc(N4CCOCC4)cc3)n[nH]c2cn1 [Example 1, N-(5-(4-methylpyridin-3-yl)-1H-pyrazolo[3,4-c]pyridin-3-yl)-4-morpholinobenzamide]
Cc1ccncc1-c1cc2c(NC(=O)c3ccc(N4CCN(C)CC4)cc3)n[nH]c2cn1 [Example 2, 4-(4-Methylpiperazin-1-yl)-N-(5-(4-methylpyridin-3-yl)-1H-pyrazolo[3,4-c]pyridin-3-yl)benzamide]
CCOC(=O)N1CCN(c2ccc(C(=O)Nc3n[nH]c4cnc(-c5cnccc5C)cc34)cc2)CC1 [Example 3, Ethyl 4-(4-(5-(4-methylpyridin-3-yl)-1H-pyrazolo[3,4-c]pyridin-3-ylcarbamoyl)phenyl)piperazine-1-carboxylate]
COC1CCN(c2ccc(C(=O)Nc3n[nH]c4cnc(-c5cnccc5C)cc34)cc2)CC1 [Example 4, 4-(4-Methoxypiperidin-1-yl)-N-(5-(4-methylpyridin-3-yl)-1H-pyrazolo[3,4-c]pyridin-3-yl)benzamide]
Cc1ccncc1-c1cc2c(NC(=O)c3ccc(N4CCCC(N)C4)cc3)n[nH]c2cn1 (stereo not shown) [Example 5, 4-(3-Aminopiperidin-1-yl)-N-(5-(4-methylpyridin-3-yl)-1H-pyrazolo[3,4-c]pyridin-3-yl)benzamide]
Cc1c(-c2cc3c(NC(=O)c4ccc(N5CCOCC5)cc4)n[nH]c3cn2)cnn1C [Example 6, N-(5-(1,5-dimethyl-1H-pyrazol-4-yl)-1H-pyrazolo[3,4-c]pyridin-3-yl)-4-morpholinobenzamide]
Cc1c(-c2cc3c(NC(=O)c4ccc(N5CCN(C)CC5)cc4)n[nH]c3cn2)cnn1C [Example 7, N-(5-(1,5-dimethyl-1H-pyrazol-4-yl)-1H-pyrazolo[3,4-c]pyridin-3-yl)-4-(4-methylpiperazin-1-yl)benzamide]
CCOC(=O)N1CCN(c2ccc(C(=O)Nc3n[nH]c4cnc(-c5cnn(C)c5C)cc34)cc2)CC1 [Example 8, Ethyl 4-(4-(5-(1,5-dimethyl-1H-pyrazol-4-yl)-1H-pyrazolo[3,4-c]pyridin-3-ylcarbamoyl)phenyl)piperazine-1-carboxylate]
COC1CCN(c2ccc(C(=O)Nc3n[nH]c4cnc(-c5cnn(C)c5C)cc34)cc2)CC1 [Example 9, N-(5-(1,5-dimethyl-1H-pyrazol-4-yl)-1H-pyrazolo[3,4-c]pyridin-3-yl)-4-(4-methoxypiperidin-1-yl)benzamide]
COC1CCCN(c2ccc(C(=O)Nc3n[nH]c4cnc(-c5cnn(C)c5C)cc34)cc2)C1 (stereo not shown) [Example 10, N-(5-(1,5-dimethyl-1H-pyrazol-4-yl)-1H-pyrazolo[3,4-c]pyridin-3-yl)-4-(3-methoxypiperidin-1-yl)benzamide]
CCCNc1ccc(C(=O)Nc2n[nH]c3cnc(-c4cnn(C)c4C)cc23)cc1 [Example 11, N-(5-(1,5-dimethyl-1H-pyrazol-4-yl)-1H-pyrazolo[3,4-c]pyridin-3-yl)-4-(propylamino)benzamide]
COCCNc1ccc(C(=O)Nc2n[nH]c3cnc(-c4cnn(C)c4C)cc23)cc1 [Example 12, N-(5-(1,5-dimethyl-1H-pyrazol-4-yl)-1H-pyrazolo[3,4-c]pyridin-3-yl)-4-(2-methoxyethylamino)benzamide]
Cc1c(-c2cc3c(NC(=O)c4ccc(N5CCC(F)(F)C5)cc4)n[nH]c3cn2)cnn1C [Example 13, 4-(3,3-Difluoropyrrolidin-1-yl)-N-(5-(1,5-dimethyl-1H-pyrazol-4-yl)-1H-pyrazolo[3,4-c]pyridin-3-yl)benzamide]
COc1ccncc1-c1cc2c(NC(=O)c3ccc(N4CCN(C)CC4)cc3)n[nH]c2cn1 [Example 14, N-(5-(4-methoxypyridin-3-yl)-1H-pyrazolo[3,4-c]pyridin-3-yl)-4-(4-methylpiperazin-1-yl)benzamide]
Cc1ccncc1-c1cc2c(C(=O)Nc3ccc(N4CCN(C)CC4)cc3)n[nH]c2cn1 [Example 15, N-(4-(4-methylpiperazin-1-yl)phenyl)-5-(4-methylpyridin-3-yl)-1H-pyrazolo[3,4-c]pyridine-3-carboxamide]
COc1ccncc1-c1cc2c(C(=O)Nc3ccc(N4CCN(C)CC4)cc3)n[nH]c2cn1 [Example 16, 5-(4-Methoxypyridin-3-yl)-N-(4-(4-methylpiperazin-1-yl)phenyl)-1H-pyrazolo[3,4-c]pyridine-3-carboxamide]

Source: patent US11406624B2, “Pyrazolopyridine compounds and uses thereof” (Incyte Corporation, priority 2017, dated 2022)
